Tests used:
[1] = system: HCC1954 (Breast Carcinoma); test: combination Emax (second highest fraction inhibited in the dose matrix, 72 h); higher = more inhibition; extreme values may be limits of the assay
Method in brief: (§1)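 After 24 hours at 37°C and 5% CO2 in 1536-well plates, cells in DMEM/F12 or RPMI plus 10% FBS received two-drug dose matrices for 72 hours. Viability came from CellTiter-Glo 2.0 luminescence and was scaled as inhibition, anchored at 0 by vehicle wells and at 1 by blank wells. Combination Emax is taken as the second-highest inhibition in the matrix, and Bliss excess as the observed combination effect less EA + EB − EA·EB, with EA and EB the single-agent effects.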

[2] = system: KARPAS-422 (B-Cell Non-Hodgkin's Lymphoma); test: as above
Method in brief: as §1

U-2-OS (Osteosarcoma) = test: as above
Method in brief: as §1

[3] = system: ONS-76 (Other Solid Carcinomas); test: as above
Method in brief: as §1

[4] = system: NCI-H64 (Small Cell Lung Carcinoma); test: as above
Method in brief: as §1

[5] = system: PANC-10-05 (Pancreatic Carcinoma); test: as above
Method in brief: as §1

[6] = system: CAPAN-2 (Pancreatic Carcinoma); test: as above
Method in brief: as §1

[7] = system: NCI-H2066 (Squamous Cell Lung Carcinoma); test: as above
Method in brief: as §1

LN-405 (Glioblastoma) = test: as above
Method in brief: as §1

[8] = system: NCI-H1581 (Non-Small Cell Lung Carcinoma); test: as above
Method in brief: as §1

[9] = system: ECC10 (Gastric Carcinoma); test: as above
Method in brief: as §1

IGR-37 (Melanoma) = test: as above
Method in brief: as §1

[10] = system: COLO-320-HSR (Colorectal Carcinoma); test: as above
Method in brief: as §1

[11] = system: BICR22 (Oral Cavity Carcinoma); test: as above
Method in brief: as §1

FU97 (Gastric Carcinoma) = test: as above
Method in brief: as §1

[12] = system: CCK-81 (Colorectal Carcinoma); test: as above
Method in brief: as §1

[13] = system: NCI-H1666 (Lung Adenocarcinoma); test: as above
Method in brief: as §1

NY (Osteosarcoma) = test: as above
Method in brief: as §1

NCI-H2591 (Mesothelioma) = test: as above
Method in brief: as §1

[14] = system: CAPAN-2 (Pancreatic Carcinoma); test: Bliss excess, mean over the matrix (fraction); higher = more synergy
Method in brief: as §1
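Wherever Bliss excess, mean over the matrix is given: after 72 h of two-drug dosing.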

## CS(=O)(=O)CCNCc1ccc(-c2ccc3ncnc(Nc4ccc(OCc5cccc(F)c5)c(Cl)c4)c3c2)o1 [Lapatinib] + NC1(c2ccc(-c3nc4ccn5c(=O)[nH]nc5c4cc3-c3ccccc3)cc2)CCC1 [MK-2206] (first compound max 10 µM, 7x7, partner max 10 µM)
[1]
  combination Emax: 0.939
[2]
  combination Emax: 0.986
U-2-OS (Osteosarcoma)
  combination Emax: 0.257
[3]
  combination Emax: 0.783
[4]
  combination Emax: 0.533
[5]
  combination Emax: 0.613
[6]
  combination Emax: 0.299
[7]
  combination Emax: 0.659
LN-405 (Glioblastoma)
  combination Emax: 0.789
[8]
  combination Emax: 0.462
[9]
  combination Emax: 0.972
IGR-37 (Melanoma)
  combination Emax: 0.901
[10]
  combination Emax: 0.925
[11]
  combination Emax: 0.93
FU97 (Gastric Carcinoma)
  combination Emax: 0.795
[12]
  combination Emax: 0.985
[13]
  combination Emax: 0.898
NY (Osteosarcoma)
  combination Emax: 0.246
NCI-H2591 (Mesothelioma)
  combination Emax: 0.418
[14]
  Bliss excess: -0.0098
